Key:
[1] = target: nucleolin (UniProt P19338); experiment: fluorescence titration; settings: Fluorescence titration: buffer for the nucleolin titration not stated separately (C8-aptamer titrations: 30 mM potassium phosphate pH 7.2, 100 mM KCl)
[2] = system: 5'-FAM-AS1411-TAMRA-3' (DNA, G4) GGTGGTGGTGGTTGTGGTGGTGGTGG; experiment: FRET melting; settings: 10 mM KCl, 90 mM LiCl; 10 mM lithium cacodylate, pH 7.2; 1 µM C8, 0.2 µM DNA; no nucleolin; Tm 46.9 °C
[3] = system: AS1411 (DNA, G4) GGTGGTGGTGGTTGTGGTGGTGGTGG; experiment: CD melting; settings: 10 mM KCl, 90 mM LiCl; 10 mM lithium cacodylate, pH 7.2; 2 molar equivalents C8; Tm without ligand 56.3 °C
[4] = system: AS1411 (DNA, G4) GGTGGTGGTGGTTGTGGTGGTGGTGG; experiment: fluorescence titration of ligand, Hill model; settings: 100 mM KCl, 30 mM potassium phosphate; pH 7.2; 5 μM C8; apparent; Hill n 2.8; SD ≤ 1 × 10^−8 M
[5] = system: U-AS1411 (DNA, G4, uracil in place of thymine at 12 and 13 (text: dT to rU substitutions)) GGTGGTGGTGGUUGTGGTGGTGGTGG; experiment: CD melting; settings: 10 mM KCl, 90 mM LiCl; 10 mM lithium cacodylate, pH 7.2; 2 molar equivalents C8; Tm without ligand 52.6 °C
[6] = system: U-AS1411 (DNA, G4, uracil in place of thymine at 12 and 13 (text: dT to rU substitutions)) GGTGGTGGTGGUUGTGGTGGTGGTGG; experiment: fluorescence titration of ligand, Hill model; settings: 100 mM KCl, 30 mM potassium phosphate; pH 7.2; 5 μM C8; apparent; Hill n 2.5; SD ≤ 1 × 10^−8 M

Sequence of UniProt P19338 (P19338 whole entry): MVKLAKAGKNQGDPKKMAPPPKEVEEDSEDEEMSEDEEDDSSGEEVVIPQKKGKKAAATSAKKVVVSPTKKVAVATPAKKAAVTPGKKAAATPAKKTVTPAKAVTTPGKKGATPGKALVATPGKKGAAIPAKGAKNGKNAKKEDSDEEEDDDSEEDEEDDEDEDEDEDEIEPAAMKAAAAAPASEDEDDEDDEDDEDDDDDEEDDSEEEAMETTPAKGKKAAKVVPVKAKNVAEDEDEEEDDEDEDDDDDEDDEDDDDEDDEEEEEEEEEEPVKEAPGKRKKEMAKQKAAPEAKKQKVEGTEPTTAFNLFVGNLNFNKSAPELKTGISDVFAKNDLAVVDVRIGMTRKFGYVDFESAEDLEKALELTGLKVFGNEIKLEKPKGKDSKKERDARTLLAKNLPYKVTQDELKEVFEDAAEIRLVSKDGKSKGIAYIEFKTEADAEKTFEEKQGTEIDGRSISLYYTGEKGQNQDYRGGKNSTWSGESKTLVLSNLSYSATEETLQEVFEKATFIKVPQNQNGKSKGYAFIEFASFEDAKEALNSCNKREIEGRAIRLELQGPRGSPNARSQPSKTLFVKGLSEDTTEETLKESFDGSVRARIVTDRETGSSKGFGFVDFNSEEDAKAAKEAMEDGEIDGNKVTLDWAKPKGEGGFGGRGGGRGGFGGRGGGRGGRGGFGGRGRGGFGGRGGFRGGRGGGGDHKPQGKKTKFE

ΔTm [2] | ΔTm [3] | KD [4] | ΔTm [5] | KD [6] | Molecule | Kd ([1]; no C8, Cy3-AS1411 at 1 uM (Kd far below probe concentration)) | Kd ([1]; with ligand C8, Cy3-AS1411 at 1 uM (Kd far below probe concentration))
– | – | – | – | – | GGTGGTGGTGGTTGTGGTGGTGGTGG [Cy3-AS1411] | 0.00863 nM | 0.00638 nM
13.1 ± 0.8 °C | 28.4 ± 0.2 °C | 1290 nM | 24.5 ± 0.4 °C | 1370 nM | CN(C)c1ccc2cc3ccc(N(C)C)cc3[n+](CCCCCCCCNC(=O)c3ccc(I)cc3)c2c1 | – | –

From article PMC6538641 (2019)
